Measurements: ChEMBL document CHEMBL1201862, “PubChem BioAssay data set” (2004)
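A five-concentration, 48-hour dose response in 96-well plates underlies each endpoint, interpolated linearly between surrounding concentrations. At the GI50, growth is halved.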 Calls of active or inactive are those of the source. Cut-off read from the data, not from the text of the source: active = GI50 up to about 1.1 µM and inactive = higher.

What was measured:
Test in all cases: NCI anticancer screen, dose series, 48 h
OVCAR-5 = test system: OVCAR-5
SNB-19 = test system: SNB-19
UACC-257 = test system: UACC-257
M19-MEL = test system: M19-MEL
KM-20L2 = test system: KM-20L2
EKVX = test system: EKVX
HOP-18 = test system: HOP-18
786-0 = test system: 786-0
SK-MEL-28 = test system: SK-MEL-28
COLO 205 = test system: COLO 205
NCI-H226 = test system: NCI-H226
UACC-62 = test system: UACC-62
OVCAR-8 = test system: OVCAR-8
M14 = test system: M14
K562 = test system: K562
DMS-114 = test system: DMS-114

Structure (SMILES) | GI50 (OVCAR-5) | GI50 (SNB-19) | GI50 (UACC-257) | GI50 (M19-MEL) | GI50 (KM-20L2) | GI50 (EKVX) | GI50 (HOP-18) | GI50 (786-0) | GI50 (SK-MEL-28) | GI50 (COLO 205) | GI50 (NCI-H226) | GI50 (UACC-62) | GI50 (OVCAR-8) | GI50 (M14) | GI50 (K562) | GI50 (DMS-114)
Cc1cc2c(CC(=O)O)n[nH]c2c(C(=O)O)c1C | > 100 µM (inactive) | > 100 µM (inactive) | > 100 µM (inactive) | > 100 µM (inactive) | > 100 µM (inactive) | > 100 µM (inactive) | > 100 µM (inactive) | > 100 µM (inactive) | > 100 µM (inactive) | > 100 µM (inactive) | > 100 µM (inactive) | > 100 µM (inactive) | > 100 µM (inactive) |  |  | 
CCOc1ccc(N(CC(=O)N2CC(=O)Nc3cc(C)c(C)cc32)C(C)=O)cc1 | > 100 µM (inactive) | > 100 µM (inactive) | > 100 µM (inactive) | > 100 µM (inactive) | > 100 µM (inactive) | > 100 µM (inactive) | > 100 µM (inactive) | > 100 µM (inactive) | > 100 µM (inactive) | > 100 µM (inactive) | > 100 µM (inactive) | > 100 µM (inactive) | > 100 µM (inactive) | > 100 µM (inactive) | > 100 µM (inactive) | 
Brc1ccc(C2SCc3nc4ccccc4n32)cc1 (stereo not given) | 5.4 µM (inactive) | 4.48 µM (inactive) |  | 12.4 µM (inactive) |  | 11.9 µM (inactive) | 45.5 µM (inactive) | 12.2 µM (inactive) | 4.72 µM (inactive) | 12.7 µM (inactive) | 17.4 µM (inactive) | 6.68 µM (inactive) | 12.8 µM (inactive) | 12.4 µM (inactive) | 3.65 µM (inactive) | 
O=C1Sc2ccccc2C(=O)N2CSCC12 (stereo not given) |  | > 100 µM (inactive) | > 100 µM (inactive) | > 100 µM (inactive) | > 100 µM (inactive) | > 100 µM (inactive) | > 100 µM (inactive) | > 100 µM (inactive) | > 100 µM (inactive) | > 100 µM (inactive) | > 100 µM (inactive) | > 100 µM (inactive) | > 100 µM (inactive) | > 100 µM (inactive) | > 100 µM (inactive) | > 100 µM (inactive)
CC(=O)NNc1ncc(C(=O)/C=C/c2ccccc2C)s1 | > 100 µM (inactive) | > 100 µM (inactive) | > 100 µM (inactive) | > 100 µM (inactive) | > 100 µM (inactive) | > 100 µM (inactive) | > 100 µM (inactive) | > 100 µM (inactive) | > 100 µM (inactive) | > 100 µM (inactive) |  | > 100 µM (inactive) | > 100 µM (inactive) |  | > 100 µM (inactive) | > 100 µM (inactive)
O=C(CC1(O)C(=O)Nc2c(Cl)ccc(Cl)c21)c1ccc(Cl)cc1Cl (stereo not given) | 16.6 µM (inactive) | 32.2 µM (inactive) | 11.6 µM (inactive) | 7.16 µM (inactive) | 35.4 µM (inactive) | 21.6 µM (inactive) | 35.1 µM (inactive) | 14.2 µM (inactive) | 21.7 µM (inactive) | 17.6 µM (inactive) | 15.5 µM (inactive) | 16.1 µM (inactive) | 20.7 µM (inactive) | 13.2 µM (inactive) |  | 19.3 µM (inactive)
O=C1C2C(C(=O)N1Cc1ccccc1)N(Cc1ccccc1)C(=O)N2Cc1ccccc1 (stereo not given) | > 100 µM (inactive) | > 100 µM (inactive) | > 100 µM (inactive) | > 100 µM (inactive) | > 100 µM (inactive) | > 100 µM (inactive) |  | > 100 µM (inactive) | > 100 µM (inactive) | > 100 µM (inactive) | > 100 µM (inactive) | > 100 µM (inactive) | > 100 µM (inactive) | > 100 µM (inactive) | > 100 µM (inactive) | > 100 µM (inactive)
CCc1cccc(C)c1NC(=O)CCc1nnc(SC)o1 | > 100 µM (inactive) | > 100 µM (inactive) | > 100 µM (inactive) | > 100 µM (inactive) | > 100 µM (inactive) | > 100 µM (inactive) | > 100 µM (inactive) | > 100 µM (inactive) | > 100 µM (inactive) | > 100 µM (inactive) |  | > 100 µM (inactive) | > 100 µM (inactive) | > 100 µM (inactive) | > 100 µM (inactive) | > 100 µM (inactive)
COc1ccc(C2(CN(C)C)COc3cc(OC)c(OC)cc3C2=O)cc1OC (stereo not given) |  | > 100 µM (inactive) | 49.1 µM (inactive) | 66.8 µM (inactive) | > 100 µM (inactive) | > 100 µM (inactive) | > 100 µM (inactive) | > 100 µM (inactive) | > 100 µM (inactive) | 26.6 µM (inactive) | 84.9 µM (inactive) | 38.7 µM (inactive) | 53.1 µM (inactive) | 89.3 µM (inactive) | 31.6 µM (inactive) | 23.6 µM (inactive)
Oc1cc(-c2ccccc2)nc2cc(Cl)ccc12 | > 100 µM (inactive) | 0.527 µM (active) | 14.1 µM (inactive) | 0.575 µM (active) | 1.52 µM (inactive) | > 100 µM (inactive) | 11.2 µM (inactive) | 0.507 µM (active) | 17.9 µM (inactive) | 0.697 µM (active) | 7.67 µM (inactive) | 0.294 µM (active) | 0.74 µM (active) | 0.555 µM (active) | 0.382 µM (active) | 0.383 µM (active)
Nc1cccc2c1-c1c(cccc1[N+](=O)[O-])C2=O | > 100 µM (inactive) | > 100 µM (inactive) | > 100 µM (inactive) | > 100 µM (inactive) | > 100 µM (inactive) | > 100 µM (inactive) | > 100 µM (inactive) | > 100 µM (inactive) |  | > 100 µM (inactive) | > 100 µM (inactive) | > 100 µM (inactive) | > 100 µM (inactive) | > 100 µM (inactive) | > 100 µM (inactive) | > 100 µM (inactive)
O=C1NC2(CCCC2)/C(=N\O)C12CCCC2 | > 100 µM (inactive) | > 100 µM (inactive) | > 100 µM (inactive) | > 100 µM (inactive) |  | > 100 µM (inactive) | > 100 µM (inactive) | > 100 µM (inactive) | > 100 µM (inactive) | > 100 µM (inactive) |  | > 100 µM (inactive) | > 100 µM (inactive) | > 100 µM (inactive) | > 100 µM (inactive) | > 100 µM (inactive)
NCCOCn1cc(Cc2cccc(OCc3ccccc3)c2)c(=O)[nH]c1=O |  | > 100 µM (inactive) |  |  | > 100 µM (inactive) | > 100 µM (inactive) | > 100 µM (inactive) | 53.6 µM (inactive) | > 100 µM (inactive) | 92.5 µM (inactive) | > 100 µM (inactive) | > 100 µM (inactive) | > 100 µM (inactive) | > 100 µM (inactive) | 42.8 µM (inactive) | 77.1 µM (inactive)
CCCCC1(C(NC(=O)c2ccccc2Cl)c2ccncc2)C(=O)N(c2ccccc2)N(c2ccccc2)C1=O (stereo not given) | > 100 µM (inactive) | 77.6 µM (inactive) | 29.7 µM (inactive) | 47.5 µM (inactive) | 59.7 µM (inactive) | 58.3 µM (inactive) | > 100 µM (inactive) | 83.4 µM (inactive) | > 100 µM (inactive) | 22.6 µM (inactive) | 66.8 µM (inactive) | 69.5 µM (inactive) | 75 µM (inactive) | 55.7 µM (inactive) | 33.5 µM (inactive) | 41.4 µM (inactive)
O=c1/c(=C/c2ccc(Cl)cc2Cl)sc2nc3ccccc3n12 | > 100 µM (inactive) | > 100 µM (inactive) | > 100 µM (inactive) | > 100 µM (inactive) | > 100 µM (inactive) | > 100 µM (inactive) | > 100 µM (inactive) | > 100 µM (inactive) | > 100 µM (inactive) | > 100 µM (inactive) | > 100 µM (inactive) | > 100 µM (inactive) | > 100 µM (inactive) | > 100 µM (inactive) | > 100 µM (inactive) | > 100 µM (inactive)
CCC1CCC2CCCC(C)N12 (stereo not given) |  | > 100 µM (inactive) | > 100 µM (inactive) | > 100 µM (inactive) | > 100 µM (inactive) | > 100 µM (inactive) | > 100 µM (inactive) | > 100 µM (inactive) | > 100 µM (inactive) | > 100 µM (inactive) | > 100 µM (inactive) | > 100 µM (inactive) | > 100 µM (inactive) | > 100 µM (inactive) | > 100 µM (inactive) | > 100 µM (inactive)
CCCCCCCCc1cc2c(O)c(c1)Cc1cc(CCCCCCCC)cc(c1O)Cc1cc(CCCCCCCC)cc(c1O)Cc1cc(CCCCCCCC)cc(c1O)Cc1cc(CCCCCCCC)cc(c1O)Cc1cc(CCCCCCCC)cc(c1O)C2 | > 100 µM (inactive) | > 100 µM (inactive) | > 100 µM (inactive) |  | > 100 µM (inactive) |  | > 100 µM (inactive) | > 100 µM (inactive) | > 100 µM (inactive) | > 100 µM (inactive) |  | > 100 µM (inactive) | > 100 µM (inactive) | > 10 µM (inactive) | > 100 µM (inactive) | > 100 µM (inactive)
CC(C)C1C(=O)NC(CO)Cc2c[nH]c3c(C(c4c[nH]c5ccccc45)C(O)CO)ccc(c23)N1C (stereo not given) |  | > 100 µM (inactive) | > 100 µM (inactive) | > 100 µM (inactive) |  | > 100 µM (inactive) | 5.56 µM (inactive) | 62.8 µM (inactive) | > 100 µM (inactive) | 4.79 µM (inactive) |  | 79.8 µM (inactive) | > 100 µM (inactive) | > 100 µM (inactive) | 4.19 µM (inactive) | 
O=C1CC[C@@H](NC(=O)Cc2ccccc2)C(=O)N1 | > 100 µM (inactive) | > 100 µM (inactive) | > 100 µM (inactive) | > 100 µM (inactive) | > 100 µM (inactive) | > 100 µM (inactive) | > 100 µM (inactive) | > 100 µM (inactive) | > 100 µM (inactive) | > 100 µM (inactive) | > 100 µM (inactive) | > 100 µM (inactive) | > 100 µM (inactive) | > 100 µM (inactive) | > 100 µM (inactive) | 
